Two compounds from patent US10508113B2, “Inhibitors of tyrosine kinase 2 mediated signaling” (AbbVie Inc., priority 2018, dated 2019) can be followed below.

The assay deals with T1, Tyk2/Jak2 (Homo sapiens, UniProt P29597).
T1 construct: Cell Type: Frozen primary phytohemagglutinin (PHA) T-Blasts; endogenous in cells; host or cells: primary PHA T-blasts
In words: Tyk2 (Tyk2/Jak2 PSTAT4 T-Blast) alpha screen assay: inhibition of IL-12 induced phosphorylation of STAT4 in T-blast cells. Conditions: IL-12 induced pSTAT4, T-blast cells. Format: cell-based. The method, then: 1. TYK2 (TYK2/JAK2 PSTAT4 T-BLAST) ALPHA SCREEN ASSAY
IL-12 is known to transduce its signal through IL-12 receptor via Jak2 and/or Tyk2. For that reason, the activity against Tyk2/Jak2 was measured by determining the inhibition of IL-12 induced phosphorylation of STAT4 in T-blast cells. […] See, e.g., Sohn et al., J. Immunology (2013) 2205-2216.
Cell Type: Frozen primary phytohemagglutinin (PHA) T-Blasts; Culture Medium: Roswell Park Memorial Institute (RPMI) 1640 Medium, 10% heat-inactivated fetal bovine serum (FBS), 1% penicillin/streptomycin (Pen-Strep), 10 mM hydroxyethyl piperazineethanesulfonic acid (HEPES), 10 ng/mL recombinant human interleukin-12 (rhIL-12); Assay Medium: Hank's Balanced Salt Solution (HBSS), no phenol red.
i. Automated 11-point 1:3 dilution curve: 2.5 mM top concentration dispensed in column 1 of a Corning 96-well polypropylene plate. Dimethyl sulfoxide (DMSO) was added to column 12 for high and low controls. Compounds were serially diluted 1:3 by adding 20 uL stock to 40 μL DMSO across the plate via Hamilton Microlab Star instrument.
ii. Media dilution of compounds: Serially diluted compounds were diluted 1:50 in assay medium by adding 4 μL compound to 196 μL assay medium in a Corning 96-well polypropylene plate (now 2% DMSO).
iii. […]
Primary T-Blasts from overnight culture were centrifuged, washed once in assay medium, and pelleted. T-Blasts were counted and resuspended at 12,500,000 cells/mL. […]
Phosphorylated Signal Transducer and Activator of Transcription 4 (pSTAT4) was quantified using the PerkinElmer SureFire Ultra pSTAT4 (Tyrosine 693) Assay. […]
Make master mix of Protein A donor beads using the following volumes per well: 5.88 μL Dilution Buffer and 0.12 μL […]. […] Read plate on Perkin Elmer Envision. […]
Certain compounds listed in Table C were tested for Tyk2 activity following the aforementioned Tyk2 (Tyk2/Jak2 PSTAT4 T-Blast) alpha screen assay and Jak2 (PTATS UT7) alpha screen assay. […] Selectivity for Tyk2 over Jak1, and Tyk2 over Jak2, are calculated from the tabulated activity data.

T1 sequence (P29597 whole entry, other chains not shown): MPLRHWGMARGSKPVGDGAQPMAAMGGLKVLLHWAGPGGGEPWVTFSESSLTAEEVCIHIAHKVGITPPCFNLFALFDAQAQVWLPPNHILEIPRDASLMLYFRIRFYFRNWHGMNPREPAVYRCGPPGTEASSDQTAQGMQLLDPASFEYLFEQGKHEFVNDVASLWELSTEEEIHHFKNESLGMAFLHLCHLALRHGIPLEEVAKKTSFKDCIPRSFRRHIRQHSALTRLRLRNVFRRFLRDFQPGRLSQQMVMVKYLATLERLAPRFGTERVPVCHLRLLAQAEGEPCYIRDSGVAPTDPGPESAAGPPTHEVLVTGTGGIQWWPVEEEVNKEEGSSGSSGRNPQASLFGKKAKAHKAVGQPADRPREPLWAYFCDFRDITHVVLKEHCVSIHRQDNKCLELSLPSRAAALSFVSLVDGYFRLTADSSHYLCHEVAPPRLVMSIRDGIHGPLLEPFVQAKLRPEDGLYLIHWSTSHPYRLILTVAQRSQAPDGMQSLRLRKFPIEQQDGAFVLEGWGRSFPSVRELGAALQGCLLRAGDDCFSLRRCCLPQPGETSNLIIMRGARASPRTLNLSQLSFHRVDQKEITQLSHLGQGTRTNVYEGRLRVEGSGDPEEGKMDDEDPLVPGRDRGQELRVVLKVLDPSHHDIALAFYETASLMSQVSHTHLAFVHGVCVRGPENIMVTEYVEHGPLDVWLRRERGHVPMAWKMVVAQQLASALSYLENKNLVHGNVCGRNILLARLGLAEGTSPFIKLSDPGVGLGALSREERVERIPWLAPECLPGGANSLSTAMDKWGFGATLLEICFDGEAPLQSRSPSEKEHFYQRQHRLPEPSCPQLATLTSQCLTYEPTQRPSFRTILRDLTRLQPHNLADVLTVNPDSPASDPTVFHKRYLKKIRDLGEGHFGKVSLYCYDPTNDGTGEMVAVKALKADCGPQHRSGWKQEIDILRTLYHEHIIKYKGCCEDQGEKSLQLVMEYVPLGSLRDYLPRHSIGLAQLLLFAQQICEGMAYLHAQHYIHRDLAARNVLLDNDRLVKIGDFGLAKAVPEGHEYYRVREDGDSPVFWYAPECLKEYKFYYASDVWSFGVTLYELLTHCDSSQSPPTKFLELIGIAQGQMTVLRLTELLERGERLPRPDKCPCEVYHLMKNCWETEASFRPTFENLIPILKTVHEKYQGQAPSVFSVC

The term EC50 denotes the concentration giving half of the maximal effect. For `COCc1cc(-c2cn(C)c3cnc(NC(C)=O)cc23)nc([C@]2([C@H](C)O)CCOC2)c1` [Example 22.3, N-(3-(6-((R)-3-((S)-1-hydroxyethyl)tetrahydrofuran-3-yl)-4-(methoxymethyl)pyridin-2-yl)-1-methyl-1H-pyrrolo[2,3-c]pyridin-5-yl)acetamide], the response was half-maximal at 0.147 µM (EC50).

Consider `COCc1cc(-c2cn(C)c3cnc(NC(C)=O)cc23)nc([C@]2([C@@H](C)O)CCOC2)c1` [Example 22.4, N-(3-(6-((R)-3-((R)-1-hydroxyethyl)tetrahydrofuran-3-yl)-4-(methoxymethyl)pyridin-2-yl)-1-methyl-1H-pyrrolo[2,3-c]pyridin-5-yl)acetamide], for which a half-maximal response (EC50) required 0.112 µM.
